Read-outs that look alike come from different tables or passages of the source.
Tested on: HCT15 cells
Test: MDR cell based killing assay, HCT15 cells with or without Verapamil (CellTiter-Glo)
Set-up: species or system human
Conditions: for IC50: Homo sapiens
Protocol: To test the ability of the disclosed tubulysin payloads or prodrug payloads to kill human cell lines, an in vitro cytotoxicity assay can be performed. In vitro cytotoxicity of the disclosed payloads, as well as reference compounds, are evaluated using the CellTiter-Glo Assay Kit (Promega, Cat # G7573), in which the quantity of ATP present is used to determine the number of viable cells in culture. For the assay, C4-2, HEK293, or T47D cells are seeded at 4000 cells/well on Nunclon white 96-well plates in complete growth medium (DME high glucose:Ham's F12 at 4:1, 10% FBS, 100 units/ml Penicillin, 100 ug/ml streptomycin, 53 ug/ml glutatmine, 10 ug/ml insulin, 220 ng/ml biotin, 12.5 pg/ml T3, 12.5 ug/ml Adenine, 4 ug/ml transferrin for C42 cells; DME high glucose, 10% FBS, 100 units/ml Penicillin, 100 ug/ml streptomycin, 53 ug/ml glutatmine for HEK293; RPMI, 10% FBS, 100 units/ml Penicillin, 100 ug/ml streptomycin, 53 ug/ml glutatmine, 10 ug/ml insulin, 10 mM HEPEs, 200 nM Sodium Pyruvate for T47D cells) and grown overnight at 37° C. in 5% CO2. For cell viability curves, 1:3 serially diluted payloads are added to the cells at final concentrations ranging from 100 nM to 15 pM, including a no treatment control group, and are then incubated for 5 days. After the 5-day incubation, cells are incubated at room temperature with 100 μL of CellTiter-Glo reagents for 10 minutes. Relative luminescence units (RLU) can be determined on a Victor plate reader (PerkinElmer). The IC50 values are determined from a four-parameter logistic equation over a 10-point response curve (GraphPad Prism). All IC50 values are expressed in molar (M) concentration. The percent cell killing (% kill) at the maximum concentration tested is estimated from the following formula (100−% viable cells). Averages±standard deviation (SD) can be included where replicate experiments are performed.
In vitro cytotoxicity of the disclosed payloads as well as reference compounds are evaluated similarly as described above except using 1000 HCT15 cells, a colorectal carcinoma cell line, in growth medium (RPMI, 10% FBS, 100 units/ml Penicillin, 100 ug/ml streptomycin, 53 ug/ml glutatmine) with or without 5 ug/mL of Verapamil.
For each payload or prodrug payload, the HCT-15 IC50 in the absence of Verapamil is divided by the HCT-15 IC50 in the presence of Verapamil (HCT-15 IC50/HCT-15+Verapamil IC50). […] The reference compound, (MMAE), can have a ratio of 23.7. […]

[1] = HCT-15, read-out: HCT-15 with verapamil IC50

C#CCCCON(C(=O)[C@@H](NC(=O)[C@H]1CCCCN1C)[C@@H](C)CC)[C@H](C[C@@H](OC(C)=O)c1nc(C(=O)N[C@@H](Cc2ccc(O)cc2)CC(C)(C)C(=O)O)cs1)C(C)C [Compound P51, (4S)-4-({2-[(1R,3R)-1-(acetyloxy)-4-methyl-3-[(2S,3S)-3-methyl-2-{[(2R)-1-methylpiperidin-2-yl]formamido}-N-(pent-4-yn-1-yloxy)pentanamido]pentyl]-1,3-thiazol-4-yl}formamido)-5-(4-hydroxyphenyl)-2,2-dimethylpentanoic Acid] was tested. Which IC50 (HCT-15, read-out: HCT-15 IC50) did it give?
Its IC50 is 0.41 nM.

And the IC50 [1]?
Its IC50 is 0.16 nM.

How did the IC50 (HCT-15, read-out: HCT-15 IC50) turn out when CCCCCCN(C(=O)[C@@H](NC(=O)[C@H]1CCCCN1C)[C@@H](C)CC)[C@H](C[C@@H](OC(C)=O)c1nc(C(=O)N[C@@H](Cc2ccc(F)cc2)CC(C)(C)C(=O)NS(=O)(=O)c2ccc(N)cc2)cs1)C(C)C [Compound P47, (1R,3R)-1-(4-{[(2S)-4-[(4-aminobenzenesulfonyl)carbamoyl]-1-(4-fluorophenyl)-4,4-dimethylbutan-2-yl]carbamoyl}-1,3-thiazol-2-yl)-3-[(2S,3S)—N-hexyl-3-methyl-2-{[(2R)-1-methylpiperidin-2-yl]formamido}pentanamido]-4-methylpentyl Acetate] was run?
The IC50 was 53.5 nM.

Which IC50 (HCT-15, read-out: HCT-15 IC50) does the source give for C#CCCCON(C(=O)[C@@H](NC(=O)[C@H]1CCCCN1C)[C@@H](C)CC)[C@H](C[C@@H](O)c1nc(C(=O)N[C@@H](Cc2ccc(N)cc2)CC(C)(C)C(=O)O)cs1)C(C)C [Compound P33, (4S)-5-(4-aminophenyl)-4-({2-[(1R,3R)-1-hydroxy-4-methyl-3-[(2S,3S)-3-methyl-2-{[(2R)-1-methylpiperidin-2-yl]formamido}-N-(pent-4-yn-1-yloxy)pentanamido]pentyl]-1,3-thiazol-4-yl}formamido)-2,2-dimethylpentanoic Acid] here?
Its IC50 is 81.7 nM.

What about the IC50 [1] of the same compound?
Its IC50 is 28.1 nM.

With CCCCCCN(C(=O)[C@@H](NC(=O)[C@H]1CCCCN1C)[C@@H](C)CC)[C@H](C[C@@H](NC(C)=O)c1nc(C(=O)N[C@@H](Cc2ccc(N)cc2)CC(C)(C)C(=O)O)cs1)C(C)C [Compound P9, (4S)-5-(4-aminophenyl)-4-({2-[(1R,3R)-1-acetamido-3-[(2S,3S)—N-hexyl-3-methyl-2-{[(2R)-1-methylpiperidin-2-yl]formamido}pentanamido]-4-methylpentyl]-1,3-thiazol-4-yl}formamido)-2,2-dimethylpentanoic Acid] as the compound, how does the IC50 (HCT-15, read-out: HCT-15 IC50) read?
The IC50 was 2.07 nM.

And the IC50 [1]?
The IC50 was 0.3 nM.

For CCCCCCN(C(=O)[C@@H](NC(=O)[C@H]1CCCCN1)[C@@H](C)CC)[C@H](C[C@@H](OC(C)=O)c1nc(C(=O)N[C@@H](Cc2ccc(N)cc2)CC(C)(C)C(=O)O)cs1)C(C)C [Compound P18, (4S)-4-({2-[(1R,3R)-1-(acetyloxy)-3-[(2S,3S)—N-hexyl-3-methyl-2-[(2R)-piperidin-2-ylformamido]pentanamido]-4-methylpentyl]-1,3-thiazol-4-yl}formamido)-5-(4-aminophenyl)-2,2-dimethylpentanoic Acid], which IC50 (HCT-15, read-out: HCT-15 IC50) is on record?
The IC50 was 0.98 nM.

What about the IC50 [1] of the same compound?
The IC50 was 0.05 nM.

Which IC50 (HCT-15, read-out: HCT-15 IC50) does the source give for CCCCCCN(C(=O)[C@@H](NC(=O)[C@@]1(C)CCCN1C)[C@@H](C)CC)[C@H](C[C@@H](OC(C)=O)c1nc(C(=O)N[C@@H](Cc2ccc(N)cc2)CC(C)(C)C(=O)O)cs1)C(C)C [Compound P19, (4S)-4-({2-[(1R,3R)-1-(acetyloxy)-3-[(2S,3S)-2-{[(2R)-1,2-dimethylpyrrolidin-2-yl]formamido}-N-hexyl-3-methylpentanamido]-4-methylpentyl]-1,3-thiazol-4-yl}formamido)-5-(4-aminophenyl)-2,2-dimethylpentanoic Acid] here?
Its IC50 is 0.2 nM.

What about the IC50 [1] of the same compound?
The IC50 was 0.01 nM.

CCCCCCN(C(=O)[C@@H](NC(=O)[C@H]1CCCCN1C)[C@@H](C)CC)[C@H](C[C@@H](OC(C)=O)c1nc(C(=O)N[C@@H](Cc2ccc(NC(=O)CO)cc2)CC(C)(C)C(=O)O)cs1)C(C)C [Compound P29, (4S)-4-({2-[(1R,3R)-1-(acetyloxy)-3-[(2S,3S)—N-hexyl-3-methyl-2-{[(2R)-1-methylpiperidin-2-yl]formamido}pentanamido]-4-methylpentyl]-1,3-thiazol-4-yl}formamido)-5-[4-(2-hydroxyacetamido)phenyl]-2,2-dimethylpentanoic Acid] was tested. Which IC50 (HCT-15, read-out: HCT-15 IC50) did it give?
The IC50 was 4.68 nM.

And the IC50 [1]?
The IC50 was 0.67 nM.

And the “HCT-15 with verapamil Ratio to Xa = H” value (IC50 ratio to parent payload with Xa = H, with verapamil)?
Its value is 35x.

And the “HCT-15 Ratio to Xa = H” value (IC50 ratio to parent payload with Xa = H, without verapamil)?
The value was 104x.

With CCCCCCN(C(=O)[C@@H](NC(=O)[C@H]1CCCCN1C)[C@@H](C)CC)[C@H](C[C@@H](OCC)c1nc(C(=O)NS(=O)(=O)Cc2ccc(N)cc2)cs1)C(C)C [Compound P45, N-[(4-aminophenyl)methanesulfonyl]-2-[(1R,3R)-1-ethoxy-3-[(2S,3S)—N-hexyl-3-methyl-2-{[(2R)-1-methylpiperidin-2-yl]formamido}pentanamido]-4-methylpentyl]-1,3-thiazole-4-carboxamide] as the compound, how does the IC50 (HCT-15, read-out: HCT-15 IC50) read?
Its IC50 is 75.7 nM.

What does the source list for CCCCCCN(C(=O)[C@@H](NC(=O)[C@H]1C[C@H](C)CCN1)[C@@H](C)CC)[C@H](C[C@@H](OC(C)=O)c1nc(C(=O)N[C@@H](Cc2ccc(N)c(F)c2)CC(C)(C)C(=O)O)cs1)C(C)C [Compound P14, (4S)-4-({2-[(1R,3R)-1-(acetyloxy)-3-[(2S,3S)—N-hexyl-3-methyl-2-{[(2R,4R)-4-methylpiperidin-2-yl]formamido}pentanamido]-4-methylpentyl]-1,3-thiazol-4-yl}formamido)-5-(4-amino-3-fluorophenyl)-2,2-dimethylpentanoic Acid]?
IC50 (HCT-15, read-out: HCT-15 IC50): 1.21 nM; IC50 [1]: 0.1 nM

Which IC50 (HCT-15, read-out: HCT-15 IC50) does the source give for CCCCCCN(C(=O)[C@@H](NC(=O)[C@H]1CCCCN1C)[C@@H](C)CC)[C@H](C[C@@H](OCC)c1nc(C(=O)N[C@@H](Cc2ccccc2)CC(C)(C)C(=O)NS(=O)(=O)Cc2ccc(N)cc2)cs1)C(C)C [Compound P48, (2S,3S)—N-[(1R,3R)-1-(4-{[(2S)-4-{[(4-aminophenyl)methanesulfonyl]carbamoyl}-4,4-dimethyl-1-phenylbutan-2-yl]carbamoyl}-1,3-thiazol-2-yl)-1-ethoxy-4-methylpentan-3-yl]-N-hexyl-3-methyl-2-{[(2R)-1-methylpiperidin-2-yl]formamido}pentanamide] here?
Its IC50 is 65.8 nM.

CCCCCCN(C(=O)[C@@H](NC(=O)[C@H]1CCCCN1C)[C@@H](C)CC)[C@H](C[C@@H](OC(C)=O)c1nc(C(=O)N[C@@H](Cc2ccc(F)cc2)CC(C)(C)C(=O)O)cs1)C(C)C [Compound P10, (4S)-4-({2-[(1R,3R)-1-(acetyloxy)-3-[(2S,3S)—N-hexyl-3-methyl-2-{[(2R)-1-methylpiperidin-2-yl]formamido}pentanamido]-4-methylpentyl]-1,3-thiazol-4-yl}formamido)-5-(4-fluorophenyl)-2,2-dimethylpentanoic Acid] was tested. Which IC50 (HCT-15, read-out: HCT-15 IC50) did it give?
The IC50 was 0.24 nM.

What about the IC50 [1] of the same compound?
The IC50 was 0.09 nM.

CCCCCCN(C(=O)[C@@H](NC(=O)[C@H]1CCCCN1)[C@@H](C)CC)[C@H](C[C@@H](OCC)c1nc(C(=O)N[C@@H](Cc2ccc(N)cc2)CC(C)(C)C(=O)O)cs1)C(C)C [Compound P20, (4S)-5-(4-aminophenyl)-4-({2-[(1R,3R)-1-ethoxy-3-[(2S,3S)—N-hexyl-3-methyl-2-[(2R)-piperidin-2-ylformamido]pentanamido]-4-methylpentyl]-1,3-thiazol-4-yl}formamido)-2,2-dimethylpentanoic Acid] was tested. Which IC50 (HCT-15, read-out: HCT-15 IC50) did it give?
The IC50 was 6.97 nM.

What about the IC50 [1] of the same compound?
Its IC50 is 0.52 nM.

C#CCCCON(C(=O)[C@@H](NC(=O)[C@H]1CCCCN1C)[C@@H](C)CC)[C@H](C[C@@H](OC(C)=O)c1nc(C(=O)N[C@@H](Cc2ccc(NC(=O)[C@H](N)CCC(=O)O)cc2)CC(C)(C)C(=O)O)cs1)C(C)C [Compound P41, (4S)-4-({2-[(1R,3R)-1-(acetyloxy)-4-methyl-3-[(2S,3S)-3-methyl-2-{[(2R)-1-methylpiperidin-2-yl]formamido}-N-(pent-4-yn-1-yloxy)pentanamido]pentyl]-1,3-thiazol-4-yl}formamido)-5-{4-[(2R)-2-amino-4-carboxybutanamido]phenyl}-2,2-dimethylpentanoic Acid] was tested. Which IC50 (HCT-15, read-out: HCT-15 IC50) did it give?
The IC50 was 82.7 nM.

CCCCCCN(C(=O)[C@@H](NC(=O)[C@H]1CCCCN1C)[C@@H](C)CC)[C@H](C[C@@H](OC(C)=O)c1nc(C(=O)NS(=O)(=O)c2ccc(N)cc2)cs1)C(C)C [Compound P43, (1R,3R)-1-{4-[(4-aminobenzenesulfonyl)carbamoyl]-1,3-thiazol-2-yl}-3-[(2S,3S)—N-hexyl-3-methyl-2-{[(2R)-1-methylpiperidin-2-yl]formamido}pentanamido]-4-methylpentyl Acetate] was tested. Which IC50 (HCT-15, read-out: HCT-15 IC50) did it give?
The IC50 was 4.99 nM.

What about the IC50 [1] of the same compound?
The IC50 was 1.42 nM.
